Experimental data: PMC8791477, “Evaluation of SARS-CoV-2 entry, inflammation and new therapeutics in human lung tissue cells” (PLoS Pathogens, 2022)
Structures can show the parent of a compound that is named as a salt. Where two headings read alike, the source gives them in different places.

Key:
[1] = test system: VSV*ΔG(Luc)-S virus (SARS-CoV-2 spike, D614G); details: for EC50: read-out: EC50 HLT
[2] = test system: VSV*ΔG(Luc)-S virus (SARS-CoV-2 spike, D614G); details: for EC50: read-out: EC50 Vero E6

Compound	EC50 [1] [µM]	EC50 Vero E6 [2]	EC50 HLT [1]	other results
CN(C)C(=O)COC(=O)Cc1ccc(OC(=O)c2ccc(NC(=N)N)cc2)cc1 [Camostat, Camostat mesylate]				viral entry in HLT cells with entry-factor blockers (in words) [1]: significantly inhibited viral entry
Cc1ccc(-c2cc(C(F)(F)F)nn2-c2ccc(S(N)(=O)=O)cc2)cc1 [Celecoxib]	55.7			EC50 [2]: 13 µM
COc1ccc2cc1Oc1ccc(cc1)C[C@H]1c3c(cc4c(c3Oc3cc5c(cc3OC)CCN(C)[C@@H]5C2)OCO4)CCN1C [Cepharanthine]				SI VeroE6 (CC50/EC50) [2]: 48.47; SI HLT (CC50/EC50) [1]: 2.64
CC(C)C(=O)OCC(=O)[C@@]12O[C@H](C3CCCCC3)O[C@@H]1C[C@H]1[C@@H]3CCC4=CC(=O)C=C[C@]4(C)[C@H]3[C@@H](O)C[C@@]12C [Ciclesonide]	16.4			EC50 [2]: 20.5 µM
C[C@]12CCC(=O)C=C1CC[C@@H]1[C@@H]2[C@@H](O)C[C@@]2(C)[C@H]1CC[C@]2(O)C(=O)CO [Cortisol]		No effect	No effect	
C[C@@H]1C[C@H]2[C@@H]3CCC4=CC(=O)C=C[C@]4(C)[C@@]3(F)[C@@H](O)C[C@]2(C)[C@@]1(O)C(=O)CO [Dexamethasone]		No effect	No effect	viral entry in VeroE6 cells (in words) [2]: without any apparent impact
O=C1C[C@@H](c2ccc(O)c(O)c2)Oc2cc(O)cc(O)c21 [Eriodictyol]	90			viral entry in HLT cells (in words) [1]: certain activity
CC1(C)[C@@H](O[C@H]2O[C@H](C(=O)O)[C@@H](O)[C@H](O)[C@H]2O[C@@H]2O[C@H](C(=O)O)[C@@H](O)[C@H](O)[C@H]2O)CC[C@]2(C)[C@H]3C(=O)C=C4[C@@H]5C[C@@](C)(C(=O)O)CC[C@]5(C)CC[C@@]4(C)[C@]3(C)CC[C@@H]12 [Glycyrrhizin]		No effect	No effect	
Oc1ccc(CC2NCCc3cc(O)c(O)cc32)cc1 (stereo not shown) [Higenamine, Higenamine hydrochloride]		No effect	No effect	
Cc1cc(O)c2c(=O)c3c(O)cc(O)c4c5c(O)cc(O)c6c(=O)c7c(O)cc(C)c8c1c2c(c34)c(c78)c65 [Hypericin]	0.31			EC50 [2]: 1.24 µM
CC(C)Cc1ccc(C(C)C(=O)O)cc1 (stereo not shown) [Ibuprofen]		No effect	No effect	
O=C1Nc2ccccc2/C1=C1/Nc2ccccc2C1=O [Indirubin]		No effect	No effect	
CCCCCCCCCCCC(=O)O [Lauric acid]		No effect	No effect	
CC1(C)Cc2c(-c3ccccc3)c(-c3ccc(Cl)cc3)c(CC(=O)O)n2C1 [Licofelone]	32.2			
O=c1cc(-c2ccc(O)c(O)c2)oc2cc(O)cc(O)c12 [Luteolin]	~82.4			EC50 [2]: ~70.7 µM
CN(C)C(=N)N=C(N)N [Metformin]		No effect	No effect	
CCCCCCCCCC(=O)OCC(O)CO (stereo not shown) [Monocaprin]		No effect	No effect	
CCCCCCCCCCCC(=O)OCC(O)CO (stereo not shown) [Monolaurin]		No effect	No effect	
O=c1c(O)c(-c2cc(O)c(O)c(O)c2)oc2cc(O)cc(O)c12 [Myricetin]		No effect	No effect	

Compound	EC50 [1] [µM]	EC50 Vero E6 [2]	EC50 HLT [1]	other results
O=C1CN(/N=C/c2ccc([N+](=O)[O-])o2)C(=O)N1 [Nitrofurantoin]		No effect	No effect	
Cc1cccn2c(=O)c(-c3nnn[nH]3)cnc12 [Pemirolast, Pemirolast potassium]		No effect	No effect	
[H]/N=C(/N)N/C(=N/[H])NCCc1ccccc1 [Phenformin]	38.2			viral entry in HLT cells (in words) [1]: significantly reduced viral entry
C[C@]12C=CC(=O)C=C1CC[C@@H]1[C@@H]2C(=O)C[C@@]2(C)[C@H]1CC[C@]2(O)C(=O)CO [Prednisone]		No effect	Some effect	viral entry in VeroE6 cells (in words) [2]: without any apparent impact; viral entry in HLT cells (in words) [1]: partial reduction of viral entry
NC(=O)[C@@H]1CCCN1C(=O)[C@H](Cc1c[nH]cn1)NC(=O)[C@@H]1CCC(=O)N1 [Protilerin]		No effect	No effect	
O=c1c(O)c(-c2ccc(O)c(O)c2)oc2cc(O)cc(O)c12 [Quercetin]				viral entry in VeroE6 cells (in words) [2]: some viral entry suppression; EC50 [2]: > 100 µM
CCCCCCCCCCCCOS(=O)(=O)[O-].[Na+] [SLS, Sodium lauryl sulfate]	> 100			EC50 [2]: ~26.4 µM
N[C@@H](CC(=O)N1CCn2c(nnc2C(F)(F)F)C1)Cc1cc(F)c(F)cc1F [Sitagliptin]		No effect	No effect	
Cc1ccnc(NS(=O)(=O)c2ccc(N)cc2)n1 [Sulfamerazine]		No effect	No effect	
Cc1cc(NS(=O)(=O)c2ccc(N)cc2)no1 [Sulfamethoxazole]		No effect	No effect	
CC1=C(CC(=O)O)c2cc(F)ccc2/C1=C\c1ccc([S+](C)[O-])cc1 (stereo not shown) [Sulindac]	> 100	No effect		
C[C@]1(Cn2ccnn2)[C@H](C(=O)O)N2C(=O)C[C@H]2S1(=O)=O [Tazobactam]		No effect	No effect	
C[C@H](O)[C@H](O)[C@H]1CNc2nc(N)[nH]c(=O)c2N1 [Tetrahydrobiopterin, Tetrahydrobiopterin dihydrochloride]		No effect	No effect	
CC(C)[C@H](N)C(=O)OCCOCn1cnc2c(=O)[nH]c(N)nc21 [Valaciclovir]	> 100			viral entry in HLT cells (in words) [1]: some inhibitory potential
N#C[C@@H]1CCCN1C(=O)CNC12CC3CC(CC(O)(C3)C1)C2 [Vidagliptin, Vildagliptin]		No effect	No effect	
Nc1ncnc2c1ncn2[C@@H]1O[C@H](CO)[C@@H](O)[C@@H]1O [Vidarabine]	51.6			EC50 [2]: > 100 µM
Ergoloid mesylates	9.17			SI VeroE6 (CC50/EC50) [2]: 3.9; EC50 [2]: 4.78 µM; SI HLT (CC50/EC50) [1]: 11.38; viral entry inhibition in HLT cells [1]: ~ 90%
Ivermectin	13			SI VeroE6 (CC50/EC50) [2]: 1.4; EC50 [2]: 13.9 µM; SI HLT (CC50/EC50) [1]: 7.75; viral entry in HLT cells (in words) [1]: effective antiviral
recombinant protein AXL				viral entry in HLT cells with entry-factor blockers (in words) [1]: inhibited SARS-CoV-2 entry
